The source made the active and inactive calls. The calls are words filed in the database; no cut-off is given here.
Legend:
[1] = biological target: T1, Peroxisome proliferator-activated receptor gamma (Homo sapiens, UniProt P37231); test: Agonist activity at recombinant human pFA-CMV fused PPARgamma expressed in HEK293T cells transfected with pFR-luciferase plasmid and pRL-SV40 plasmid incubated for 14 to 16 hrs by dual glo luciferase reporter gene assay; format: cell-based, HEK-293T
T1 sequence (P37231 whole entry): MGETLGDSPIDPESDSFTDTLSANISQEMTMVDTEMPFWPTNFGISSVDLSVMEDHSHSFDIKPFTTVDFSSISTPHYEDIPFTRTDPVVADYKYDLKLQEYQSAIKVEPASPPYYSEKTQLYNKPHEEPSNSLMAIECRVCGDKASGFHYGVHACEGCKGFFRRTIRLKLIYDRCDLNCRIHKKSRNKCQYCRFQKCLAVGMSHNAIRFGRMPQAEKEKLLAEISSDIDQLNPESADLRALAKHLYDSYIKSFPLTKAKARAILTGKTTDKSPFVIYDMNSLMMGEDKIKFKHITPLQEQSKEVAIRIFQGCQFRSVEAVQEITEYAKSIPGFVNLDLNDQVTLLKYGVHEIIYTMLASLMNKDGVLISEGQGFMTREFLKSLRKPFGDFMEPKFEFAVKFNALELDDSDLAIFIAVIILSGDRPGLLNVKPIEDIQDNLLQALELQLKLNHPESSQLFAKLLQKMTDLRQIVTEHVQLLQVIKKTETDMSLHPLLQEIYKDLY

[2] = biological target: T1, Peroxisome proliferator-activated receptor gamma; test: Binding affinity to recombinant PPARgamma LBD (unknown origin) by isothermal titration calorimetry
[3] = biological target: T2, Retinoic acid receptor RXR-alpha (Homo sapiens, UniProt P19793); test: Agonist activity at recombinant human pFA-CMV fused RXRalpha LBD expressed in HEK293T cells transfected with pFR-luciferase plasmid and pRL-SV40 plasmid incubated for 14 to 16 hrs by dual glo luciferase reporter gene assay; format: cell-based, HEK-293T; conditions: hek-293t
T2 sequence (P19793 whole entry): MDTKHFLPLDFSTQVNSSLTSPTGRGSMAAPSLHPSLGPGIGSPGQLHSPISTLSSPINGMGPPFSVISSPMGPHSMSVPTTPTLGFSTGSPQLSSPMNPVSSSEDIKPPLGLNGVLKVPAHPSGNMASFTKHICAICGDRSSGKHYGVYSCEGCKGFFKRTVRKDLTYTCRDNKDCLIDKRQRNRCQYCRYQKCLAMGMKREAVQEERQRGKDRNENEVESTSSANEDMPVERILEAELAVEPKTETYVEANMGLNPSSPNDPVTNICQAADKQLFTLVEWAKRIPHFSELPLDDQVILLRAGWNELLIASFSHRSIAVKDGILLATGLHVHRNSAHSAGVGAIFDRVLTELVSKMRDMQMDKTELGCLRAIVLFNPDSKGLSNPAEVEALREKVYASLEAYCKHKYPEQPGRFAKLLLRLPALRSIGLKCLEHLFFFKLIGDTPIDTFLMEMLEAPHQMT

[4] = Drug level in human serum; format: ADME, cell-free; conditions: read-out: Drug uptake
[5] = Cmax in RjOrl:Swiss CD-1 mouse at 10 mg/kg, po administered as single dose measured after 1 to 24 hrs by LC-MS analysis; format: ADME, organism-based; set-up: dose 10 mg/kg, route oral; conditions: in vivo
[6] = Tmax in RjOrl:Swiss CD-1 mouse at 10 mg/kg, po administered as single dose measured after 1 to 24 hrs by LC-MS analysis; format: ADME, organism-based; conditions: in vivo
[7] = Half life in RjOrl:Swiss CD-1 mouse at 10 mg/kg, po administered as single dose measured after 1 to 24 hrs by LC-MS analysis; format: ADME, organism-based; conditions: in vivo
[8] = Plasma concentration in RjOrl:Swiss CD-1 mouse at 10 mg/kg, po administered as single dose measured after 4 to 24 hrs by LC-MS analysis; format: ADME, organism-based; conditions: in vivo
[9] = Toxicity in RjOrl:Swiss CD-1 mouse assessed as induction of adverse effect at 10 mg/kg, po administered as single dose; format: organism-based; conditions: in vivo
HEK-293T = test: Activation of renilla luciferase expressed in HEK293T cells at 3 uM incubated for 14 to 16 hrs by reporter gene assay; format: cell-based; conditions: Renilla reniformis
[10] = Drug level in euthyroid human serum by RIA; format: ADME, cell-free; conditions: read-out: Drug uptake

N[C@@H](Cc1cc(I)c(Oc2ccc(O)c(I)c2)c(I)c1)C(=O)O [LIOTHYRONINE]
EC50 [1]: 5.8 µM | Kd [2]: 0.71 µM | EC50 [3]: Not Active | concentration [4]: 1.3 to 2.1 nM

O=C(O)Cc1cc(Br)c(Oc2cc(I)c(O)c(I)c2)c(I)c1
Cmax [5]: 3180 ng/mL | Tmax [6]: 1 h | half-life [7]: 19.4 h | concentration [8]: 40 nM | Activity [9]: Non-Toxic

O=C(O)Cc1cc(I)c(Oc2ccc(O)c(I)c2)c(I)c1 [TIRATRICOL]
Activity (HEK-293T): inactive | concentration [10]: 0.24 nM

N[C@@H](Cc1cc(Br)c(Oc2cc(I)c(O)c(I)c2)c(I)c1)C(=O)O
EC50 [1]: 12.9 µM | Cmax [5]: 4480 ng/mL | Tmax [6]: 2 h | half-life [7]: 8.7 h | concentration [8]: 40 nM | Activity [9]: Non-Toxic

N[C@@H](Cc1ccc(Oc2cc(I)c(O)c(I)c2)c(I)c1)C(=O)O [REVERSE TRIIODOTHYRONINE]
EC50 [1]: 3.8 µM | Kd [2]: 0.63 µM | EC50 [3]: Not Active

From ChEMBL document CHEMBL4627384, “l-Thyroxin and the Nonclassical Thyroid Hormone TETRAC Are Potent Activators of PPARγ” (J Med Chem, 2020)
